Measured values taken from US11246817B2, “Antimicrobial composition” (Conopco, Inc., priority 2016, dated 2022).
Where two headings read alike, the source gives them in different places.

Tested on: M. furfur (CBS 1878)
Experiment: ΣFIC assay against Malassezia furfur (in-vitro susceptibility testing, alamar blue)
Assay type: cell-based
Settings: for MIC: Malassezia furfur; for interaction with zinc pyrithione (synergy) in words: binary combination with zinc pyrithione, judged from ΣFIC; for ΣFIC: in combination with zinc pyrithione 0 to 12.5 ppm, climbazole 0 to 500 ppm, selenium sulfide 0 to 100 ppm
Method: A brief description of the method is given below.
Methods: ΣFIC assay against Malassezia furfur
They are then incubated at 32° C. for 48 hrs with shaking. Then, 1 ml of the first broth culture is transferred into 9 ml of fresh PB and incubated at 32° C. for 48 hrs with shaking. The final culture should contain 2 to 6×10^6 cells/ml. This is achieved by diluting using PB to 5*10^5 cell/ml.
The alcoholic compound was serially diluted (2-fold) to prepare in a range of 10-10,000 ppm in growth medium.
Binary combinations of ZPTO and the testing compound were prepared in 96-well plate by mixing 20 μl of zinc pyrithione solution with 20 μl of testing compound. The solution in each well were further mixed with 160 μl of PB and 20 μl of M. furfur. The final cell density in the testing plate is around 5*10^4 cell/ml, and the final concentration of actives in each well of the 96-wel plate were shown below.
The plate was incubated at 32° C. for one day. Then 20 μl of alamar blue (0.01%) was added into each well with a further incubation for one day to observe the color change. Red color indicates microbial growth and the non-changing blue color indicates no growth.
The MIC is defined as the absolute lowest concentration of active that provides complete microbial growth inhibition as indicated by the blue color of alamar blue under the tested condition.
The differing behaviours of inhibitory antimicrobials in isolation and mixtures have been widely explored using the concept of the Fractional Concentration (FC) and Fractional
Inhibitory Concentration (FIC). The parameter can be defined as follows: […]
The interactions between antimicrobials can be additive, synergistic or antagonistic depending on whether the efficacy of the combination is equivalent to, greater than or less than that obtained for the same total concentration of the individual components when tested alone.
These relationships can be expressed mathematically by summing the fractional MIC values for all the components present in the mixture to give the “fractional inhibition index”. There is no consistent approach in the academic or patent literature in defining precise limiting ΣFIC values that differentiate synergy from additivity or antagonism. In this study, we have adopted a liberal approach defining any binary mixture with ΣFIC <0.9 as showing evidence of synergistic behavior.
ΣFIC=FIC (component 1)+FIC (component 2)
ΣFIC=1 corresponds to additive bactericidal activity
ΣFIC>1 corresponds to antagonistic bactericidal activity
ΣFIC<0.9 corresponds to synergistic bactericidal activity
Climbazole was varied over a concentration of 0 to 500 ppm and selenium sulfide over a concentration of 0 to 100 ppm.

[1] = CBS1878, read-out: Minimum Inhibition Concentration (MIC)

Compound | MIC [1] [µg/mL] | MIC (CBS1878, active alone, lowest concentration giving complete growth inhibition (alamar blue stays blue), 32° C., Pityrosporum Broth, read-out: Minimum Inhibition Concentration (MIC)) [µg/mL] | interaction with zinc pyrithione (synergy) in words | ΣFIC | Minimum Inhibition Concentration (MIC) (active alone, lowest concentration giving complete growth inhibition (alamar blue stays blue), 32° C., Pityrosporum Broth) [ppm]
COc1ccc(C(C)=O)c(O)c1 [paeonol] | 500 |  |  |  | 
CC(C)(C)C(=O)C(Oc1ccc(Cl)cc1)n1ccnc1 (stereo not drawn) [climbazole] |  | 3.9 | not synergistic | 2 | 
S=[Se]=S [selenium sulfide] |  |  | not synergistic | 2 | 50
C=CCc1ccc(O)c(-c2ccc(O)c(CC=C)c2)c1 [honokiol] | 1000 |  |  |  | 
C=CCc1ccc(O)c(-c2cc(CC=C)ccc2O)c1 [magnalol] | 500 |  |  |  | 
